Like-named read-outs stand apart in the source and are kept apart here. Where a SMILES comes first, the peptide text is derived from it. Where no end group is shown, it is not given here.
Legend:
[1] = tested on: U937 cell line; assay: annexine-V/propidium iodide flow cytometry on U937; details: annexine-V/propidium iodide staining
[2] = tested on: peritoneal murine macrophages (PM); assay: in vitro immunomodulatory activity on murine peritoneal macrophages (PM); format: cell-based, mouse; details: mouse peritoneal macrophages, FIG. 73
Protocol: In vitro immunomodulatory activity of MoA VHCDR3 on murine immune cells. FIGS. 47-51 are graphs showing TNF-α and IL-6 production by PM and PMN stimulated with MoA CDRs and mouse MoA VHCDR3 uptake by different cell populations. Cells were cultured in the presence or absence (NS) of human and/or mouse CDRs, lipopolisaccharide (LPS), or negative control peptide (NC) (all 10 micrograms/ml) for 18 hr. Both PM and PMN cell populations were 5×10^6/ml. After incubation, TNF-α and IL-6 levels were evaluated in culture supernatants by specific ELISA assays (* P<0.05 treated vs untreated cells, n=7). In FIG. 51, dendritic cells (DC), PM, PMN, and T cells (all 1×10^6/ml) were incubated for 1 hr in the presence or absence (NS) of biotinylated (b)-MoA VHCDR3 or b-NC (both 10 micrograms/ml). After incubation, permeabilized cells were reacted with FITC-labelled mAb to biotin (b) and analyzed by FACScan flow cytometry. Data are reported as the percentage of positive cells *, P<0.05 (b-VHCDR3 treated vs untreated cells, n=5). Error bars, s.e.m. FIGS. 52A and B show graphs and colored cell staining micrograph of kinetic of VHCDR3 uptake by PM. PM (1×10^6/ml) were incubated for different times with b-VHCDR3 or b-NC (all 10 micrograms/ml). After incubation, permeabilized cells were reacted with FITC-labelled mAb to biotin and analyzed by FACScan flow cytometry. Data are reported as the mean fluorescence intensity (MFI) and percentage of positive cells (FIG. 52A) (* P<0.05 b-VHCDR3-treated vs untreated cells, n=7). Error bars, s.e.m. In selected experiments, cells were incubated for 1 hr as above described, reacted with FITC-labelled mAb to biotin in the presence of Evans' Blue as a counter stain, and subsequently examined under fluorescent light microscopy (FIG. 52B). Note the green fluorescence of b-VHCDR3 treated cells. Original magnification 20×. In FIGS. 53 and 54 is shown the phospho-Akt activation and TNF-α production in PM stimulated with MoA VHCDR3. PM (3×10^6/ml) were stimulated for 1 hr in the presence or absence (NS) of MoA VHCDR3, LPS, an irrelevant control peptide (NC) or a scrambled peptide (SP) (all 10 micrograms/ml). After incubation, cell lysates were subjected to Western blotting. Membranes were incubated with Abs to pAkt and Akt; pAkt was normalized against Akt (FIG. 53)*, P<0.05 (treated vs untreated cells, n=5). […] PM (5×10^6/ml) were stimulated for 18 hr as above described. After incubation, TNF-α level was evaluated in culture supernatants by specific ELISA assays. (FIG. 54)*, P<0.05 (treated vs untreated cells, n=5). In FIGS. 55 and 56 is shown the phospho-IkBα activation and TNF-α gene expression in PM stimulated with MoA VHCDR3. PM (3×10^6/ml) were stimulated for 1 hr in the presence or absence (NS) of wortmannin (4 nM), MoA VHCDR3, LPS or NC (all 10 micrograms/ml). After incubation, cell lysates were subjected to Western blotting. Membranes were incubated with Abs to pIkBα and IkBα; pIkBα was normalized against IkBα. (FIG. 55)*, P<0.05 (treated versus untreated cells, n=5); †, P<0.05 (wortmannin-treated vs wortmannin-untreated cells, n=5). For testing the expression level of TNF-α gene, PM (1×10^6/ml) were cultured for 1, 6 and 18 hr as above described. After incubation, total RNA was isolated and analyzed for mRNA expression with RT-PCR (FIG. 56). Transcript copy numbers were determined by qPCR using cDNA as a template. Copy numbers were normalized against the copy number of the GADPH gene (B). […]

[3] = tested on: C. albicans SC5314 strain
Protocol: In vitro activity of N10K against C. albicans SC5314 strain. The candidacidal activity of N10K peptide against C. albicans was assessed by a conventional colony forming unit (CFU) assay as previously described (Polonelli et al., 2003; Manfredi et al., 2005). Briefly, cells of C. albicans SC5314 were incubated at 37° C. for 6 hours (hr) in the presence of N10K at the concentration indicated of 20, 12.5 or 6.25 microgram/ml, or in distilled water as control (C). After incubation, cell suspensions were plated on Sabouraud dextrose agar and incubated at 30° C. for 48 hours when CFU were counted (** P<0.01 for N10K treated versus untreated cells, by t test). […]
The alanine-substituted derivatives (asd), defined according to the position held by the alanine-substituted aminoacid, were tested against C. albicans by a conventional colony forming unit (CFU) as previously described (Polonelli et al., 2003). Briefly, cells of C. albicans SC5314 were incubated at 37° C. for 6 hours in the presence of N10K or N10K asd at different scalar concentrations or distilled water as control. After incubation, cell suspensions were plated on Sabouraud dextrose agar and incubated at 30° C. for 48 hours when CFU were counted. Based on several independent replications, the EC50 value of each peptide was calculated by nonlinear regression analysis using Graph Pad Prism 4.01 software, San Diego, Calif., USA. […]
In vitro microbicidal activity of N10K derivative with 2 amino acid substitutions, or 80% sequence identity with native N10K, namely peptide Seq Id. No. 25 was tested against Candida albicans SC5314 as determined by Colony Forming Unit assay.

[4] = tested on: PBMC; assay: AlamarBlue cell viability assay on PBMC; details: 1-20 micrograms/ml concentration range, 24 hours
Protocol: In vitro activity of N10K against HIV-1. PBMC from healthy donors were cultured at the concentration of 2×10^6 cells/ml in 96 wells plates with RPMI 1640 supplemented with 10% FBS, 1% glutamine and 20 UI/ml rIL-2 for 24 hr before treatment with N10K, then the peptide was added at increasing concentrations (1, 10 and 20 micrograms/ml) for 24 hours. AlamarBlue was added (10% v/v) and incubated for 4 hours at 37° C. Cells viability was determined by the AlamarBlue Assay (Biosource International, Inc.). The absorbance was measured with an ELISA plate reader (Tecan Sunrise Absorbance Reader) at the double wavelength of 570/595 nm. AlamarBlue added to the complete RPMI1640 medium was used as blank. […] To verify the anti-HIV-1 activity, an in vitro infection applying two different experimental approaches was performed. PBMC from 3 healthy donors were purified by Ficoll gradient centrifugation, mixed in pool and cultured in RPMI 1640 medium (10% FBS, 1% glutamine and 1% penicillin streptomycin). Before infection cells were stimulated for 24 hours with PHA (5 micrograms/ml) and after with rIL-2 (20 UI/ml). […] Viral replication was evaluated measuring the concentration of the p24 antigen in the culture supernatants by the HIV p24 ELISA Ultrasensitive detection kit (PerkinElmer, Inc.). […]

[5] = tested on: C. neoformans 6995 strain
Protocol: After the incubation period, the cell suspensions have been plated on Sabouraud dextrose agar, then incubated at 30° C. and observed for CFU enumeration after 48 hours.

[6] = tested on: B16F10-Nex2 melanoma cells; assay: melanoma cell viability by Trypan Blue exclusion; details: 1 mM to 0.05 mM, 12 hr
Protocol: (§1) In vitro activity of N10K against B16F10-Nex2, SKme128 and SKme125 melanoma cells. Peptide N10K and the relative scramble peptide (SP) used as negative control were diluted from 1 mM to 0.05 mM in RPMI with 10% FCS and incubated with B16F10-Nex2, SKme128 and SKme125 cells (5×10^3 cells/well) in 100 microliters per well for 12 hr at 37° C. Each peptide was tested in triplicate. After 12 hr, the cytotoxic activities of the peptides were determined by measuring cell viability by Trypan Blue exclusion. A 50% inhibition of cell growth was taken as a comparative index of cytotoxicity (EC50).
as §1, with “T11F” for “N10K”, “microL” for “microliters”, “37 u°” for “37°”

Row | Compound | induction of apoptotic/necrotic effects [1] | TNF-α-inducing activity compared with VHCDR3 [2] | EC50 ([3]; SC5314, 6 h) | further results
1 | CC(C)C[C@H](NC(=O)[C@H](C)NC(=O)[C@H](CCC(=O)O)NC(=O)[C@@H](N)Cc1c[nH]cn1)C(=O)O [Peptide H4L, H E A L] (H-HEAL-OH) | exclude the induction of apoptotic/necrotic effects |  |  | 
2 | G Q A G N L W F A Y (GQAGNLWFAY) [Peptide A3] |  | either unchanged or slightly reduced |  | 
3 | G Q Y G A L W F A Y (GQYGALWFAY) [Peptide A5] |  | either unchanged or slightly reduced |  | 
4 | NQVSLTCLVK [Peptide N10K, N Q V S L T C L V K] | exclude the induction of apoptotic/necrotic effects |  | 1000 nM | EC50 ([3]; 6 hours 37° C., several independent replications, peptide batches of Examples I and II): 10000 nM; cytotoxicity for PBMC (cell viability) [4]: not to be cytotoxic; EC50 ([5]; 6 hours 37° C., multiple experiments): 5.16 µM; cytotoxic activity (cell viability) [6]: showed activity
5 | TCRVDHRGLTF [Peptide T11F, T C R V D H R G L T F] | exclude the induction of apoptotic/necrotic effects |  | 1600 nM | EC50 ([5]; 6995 strain, 6 h): 2.69 µM

Source: patent US20120121574A1, “ANTIMICROBIAL, ANTIVIRAL, ANTICANCER AND IMMUNOMODULATORY PEPTIDES AND USES THEREFORE” (priority 2010, published 2012)
